# From patent US7226904B2, “Agents and methods for promoting bone growth” (priority 2000, dated 2007)
# Peptide text beside a SMILES is read from it. * marks the point of attachment. αGalNAc = CC(=O)N[C@@H]1[C@@H](O)[C@@H](O)[C@@H](CO)O[C@@H]1*
# System: normal adult rats
# Test: Systemic (subcutaneous) administration to normal adult rats, pQCT bone densitometry of tibia
# Format: in vivo, rat
# Conditions: 0.4 ng/g B.W. every 2 days for two weeks, vs saline
# Method: After humane sacrifice, long bones were collected from rats subjected to agent treatment as described in Examples 1 and 2. The bones were evaluated using densitometry techniques with the Norland Medical Systems pQCT scanner. The densitometric parameters that were determined included: • 1. Total Content, which is the mineral content of the bone within a 1 mm slice. • 2. Total Density, which is the mean density of the total bone. • 3. Trabecular Content, which is the mineral content of the trabecular bone within a 1 mm slice. • 4. Trabecular Density, which is the mean density of the trabecular bone • 5. Cortical Content, which is the mineral content of the cortical bone within a 1 mm slice. • 6. Cortical Density, which is the mean density of the […]. • 7. Periosteal circumference in the “circular ring model” in mm. • 8. Endosteal circumference in the “circular ring model” in mm. • 9. Total area (mm^2), which is the cross sectional area of the bone after the soft tissue has been peeled off. • 10. Cortical area (mm^2), which is the area assigned to be pure cortical. • 11. Trabecular area (mm^2), which is the cross sectional area of the trabecular area after the cortical and subcortical area has been peeled off. Effects of Agents on Bone Density:
# Non-glycosylated fADBP, at a dosage of 0.4 ng/g of body weight, was administered by subcutaneous injection into normal adult rats every two days for two weeks. The effect of this treatment on bone density and DpD levels was assayed as described above.
# Glycosylated fADBP, at a dosage of 5.0 ng/g of body weight was administered by subcutaneous injection into normal adult rats every two days for two weeks. The effect of this treatment on bone density was assayed as described above.
# Non-glycosylated DBP peptides of different lengths, at a dosage of 0.4 ng/g of body weight, were administered by subcutaneous injection into normal adult rats every two days for two weeks. The DBP peptides were derived from fADBP and comprised the first 3, 4, 5, 6, 7, 8, 9, 10, 11, 12, and 13 amino acids of SEQ ID NO. 1. After humane sacrifice, the tibia was collected from control and DBP peptide treated rats and analyzed using densitometry techniques with the Norland Medical Systems pQCT scanner. Statistical analysis was performed
row,Compound,Total Bone Density
1,DBP peptide 11: first 11 amino acids of SEQ ID NO. 1 (Thr Pro Thr Glu Leu Ala Lys Leu Val Asn Lys) (TPTELAKLVNK; listed as Homo sapiens),significantly increased
2,DBP peptide 3: first 3 amino acids of SEQ ID NO. 1 (Thr Pro Thr) (TPT; listed as Homo sapiens),significantly increased
3,DBP peptide 8: first 8 amino acids of SEQ ID NO. 1 (Thr Pro Thr Glu Leu Ala Lys Leu) (TPTELAKL; listed as Homo sapiens),significantly increased
4,DBP peptide 6: first 6 amino acids of SEQ ID NO. 1 (Thr Pro Thr Glu Leu Ala) (TPTELA; listed as Homo sapiens),significantly increased
5,DBP peptide 12: first 12 amino acids of SEQ ID NO. 1 (Thr Pro Thr Glu Leu Ala Lys Leu Val Asn Lys Arg) (TPTELAKLVNKR; listed as Homo sapiens),significantly increased
6,DBP peptide 10: first 10 amino acids of SEQ ID NO. 1 (Thr Pro Thr Glu Leu Ala Lys Leu Val Asn) (TPTELAKLVN; listed as Homo sapiens),significantly increased
7,DBP peptide 7: first 7 amino acids of SEQ ID NO. 1 (Thr Pro Thr Glu Leu Ala Lys) (TPTELAK; listed as Homo sapiens),significantly increased
8,DBP peptide 5: first 5 amino acids of SEQ ID NO. 1 (Thr Pro Thr Glu Leu) (TPTEL; listed as Homo sapiens),significantly increased
9,DBP peptide 4: first 4 amino acids of SEQ ID NO. 1 (Thr Pro Thr Glu) (TPTE; listed as Homo sapiens),significantly increased

# System: Ovariectomized Sprague-Dawley rats
# Test: High-dose administration to ovariectomized Sprague-Dawley rats
# Format: in vivo
# Conditions: 100 ng/g to 30 μg/g body weight every day for 60 days
# Method: Ovariectomized Sprague-Dawley rats were allowed to lose bone from 60 days. Thereafter, animals were injected with glycosylated fADBP or non-glycosylated fADBP, at concentrations ranging from 100 ng/g of body weight to 30 μg/g of body weight every day for 60 days.
row,Compound,toxic effect
1,CC(=O)N[C@H]1[C@@H](O[C@H](C)[C@H](NC(=O)[C@@H]2CCCN2C(=O)[C@@H](N)[C@@H](C)O)C(=O)N[C@@H](CCC(=O)O)C(=O)N[C@@H](CC(C)C)C(=O)N[C@@H](C)C(=O)N[C@@H](CCCCN)C(=O)N[C@@H](CC(C)C)C(=O)N[C@H](C(=O)N[C@@H](CC(N)=O)C(=O)N[C@@H](CCCCN)C(=O)N[C@@H](CCCNC(=N)N)C(=O)N[C@@H](CO)C(=O)N[C@@H](CCC(=O)O)C(=O)O)C(C)C)O[C@H](CO)[C@H](O)[C@@H]1O [Glycosylated fADBP] (H-TPT(αGalNAc)ELAKLVNKRSE-OH),no detectable toxic effect
